Assay results taken from paper PMC6934184, “Selective DNA-PKcs inhibition extends the therapeutic index of localized radiotherapy and chemotherapy” (The Journal of Clinical Investigation, 2019).

Biological target: T1, CDK11 (Inactive) (Homo sapiens, UniProt Q9BWU1)
T1 construct: purchased Thermo Fisher Scientific (Life Technologies) SelectScreen
Experiment: SelectScreen LanthaScreen
Type: binding
Conditions: 1 µM
Summary of the method: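 NU5455 was profiled across the SelectScreen Broad panel of kinase activity and binding assays. Z'LYTE reactions such as CSF1R ran at apparent Km ATP, while the Adapta CAMK1 assay used ATP listed as 10. Values are given as percent.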

T1 sequence (Q9BWU1 whole entry): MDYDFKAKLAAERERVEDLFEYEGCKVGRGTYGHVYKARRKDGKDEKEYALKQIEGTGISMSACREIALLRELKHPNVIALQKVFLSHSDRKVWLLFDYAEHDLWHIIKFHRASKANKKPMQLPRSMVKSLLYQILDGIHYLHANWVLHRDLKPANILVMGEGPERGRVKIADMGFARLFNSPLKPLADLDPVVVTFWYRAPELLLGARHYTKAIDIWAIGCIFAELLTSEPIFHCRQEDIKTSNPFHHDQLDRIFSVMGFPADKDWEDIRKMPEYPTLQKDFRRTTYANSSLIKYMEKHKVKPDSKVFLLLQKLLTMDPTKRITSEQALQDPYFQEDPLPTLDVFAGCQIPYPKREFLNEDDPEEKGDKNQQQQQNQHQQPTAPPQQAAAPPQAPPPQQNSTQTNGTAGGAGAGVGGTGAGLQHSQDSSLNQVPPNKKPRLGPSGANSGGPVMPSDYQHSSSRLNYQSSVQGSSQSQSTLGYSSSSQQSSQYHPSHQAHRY

Which “% displacement” value does the source give for `CN(C(=O)CN1CCOCC1)c1ccc2sc3c(-c4cccc5c(=O)cc(N6CC7CCC(C6)O7)oc45)cccc3c2c1` [NU5455] here?
The value was 1.7%.
